Assay results published in the NIST ThermoML archive (doi:10.1021/je401036f).
Numbers after ± are expanded uncertainties.

Test: refractive index (Na D-line) (dimensionless); xn = mol fraction of the nth substance listed
Settings: 101 kPa, Liquid, Standard Abbe refractometry

CC(O)CN (stereo not given) [1-amino-2-propanol] + CCC(C)O
refractive index
Settings | 288.15 K | 293.15 K | 298.15 K | 303.15 K | 308.15 K | 313.15 K | 318.15 K | 323.15 K | 328.15 K | 333.15 K
x1 = 0.1003 | 1.4039 ± 0.0004 | 1.4018 ± 0.0004 | 1.3996 ± 0.0004 | 1.3974 ± 0.0004 | 1.3952 ± 0.0004 | 1.3929 ± 0.0004 | 1.3905 ± 0.0004 | 1.3881 ± 0.0004 | 1.3857 ± 0.0004 | 1.3832 ± 0.0004
x1 = 0.2005 | 1.4082 ± 0.0004 | 1.4062 ± 0.0004 | 1.404 ± 0.0004 | 1.4019 ± 0.0004 | 1.3996 ± 0.0004 | 1.3974 ± 0.0004 | 1.3951 ± 0.0004 | 1.3928 ± 0.0004 | 1.3905 ± 0.0004 | 1.3881 ± 0.0004
x1 = 0.3 | 1.4128 ± 0.0004 | 1.4107 ± 0.0004 | 1.4086 ± 0.0004 | 1.4065 ± 0.0004 | 1.4043 ± 0.0004 | 1.4021 ± 0.0004 | 1.3999 ± 0.0004 | 1.3977 ± 0.0004 | 1.3955 ± 0.0004 | 1.3932 ± 0.0004
x1 = 0.3999 | 1.4177 ± 0.0004 | 1.4156 ± 0.0004 | 1.4135 ± 0.0004 | 1.4114 ± 0.0004 | 1.4093 ± 0.0004 | 1.4071 ± 0.0004 | 1.4049 ± 0.0004 | 1.4028 ± 0.0004 | 1.4006 ± 0.0004 | 1.3983 ± 0.0004
x1 = 0.5 | 1.4228 ± 0.0004 | 1.4207 ± 0.0004 | 1.4186 ± 0.0004 | 1.4165 ± 0.0004 | 1.4144 ± 0.0004 | 1.4123 ± 0.0004 | 1.4102 ± 0.0004 | 1.408 ± 0.0004 | 1.4059 ± 0.0004 | 1.4036 ± 0.0004
x1 = 0.6001 | 1.428 ± 0.0004 | 1.4259 ± 0.0004 | 1.4239 ± 0.0004 | 1.4218 ± 0.0004 | 1.4197 ± 0.0004 | 1.4176 ± 0.0004 | 1.4154 ± 0.0004 | 1.4133 ± 0.0004 | 1.4112 ± 0.0004 | 1.409 ± 0.0004
x1 = 0.7 | 1.4332 ± 0.0005 | 1.4312 ± 0.0005 | 1.4292 ± 0.0005 | 1.4271 ± 0.0005 | 1.425 ± 0.0005 | 1.4229 ± 0.0005 | 1.4208 ± 0.0005 | 1.4187 ± 0.0005 | 1.4166 ± 0.0005 | 1.4144 ± 0.0005
x1 = 0.8 | 1.4386 ± 0.0005 | 1.4366 ± 0.0005 | 1.4345 ± 0.0005 | 1.4325 ± 0.0005 | 1.4304 ± 0.0005 | 1.4284 ± 0.0005 | 1.4263 ± 0.0005 | 1.4242 ± 0.0005 | 1.4221 ± 0.0005 | 1.42 ± 0.0005
x1 = 0.8999 | 1.4442 ± 0.0005 | 1.4422 ± 0.0005 | 1.4402 ± 0.0005 | 1.4382 ± 0.0005 | 1.4362 ± 0.0005 | 1.4342 ± 0.0005 | 1.4322 ± 0.0005 | 1.4302 ± 0.0005 | 1.4281 ± 0.0005 | 1.426 ± 0.0005
x1 = 1 | 1.45 ± 0.0005 | 1.448 ± 0.0005 | 1.446 ± 0.0005 | 1.444 ± 0.0005 | 1.4419 ± 0.0005 | 1.4399 ± 0.0005 | 1.4378 ± 0.0005 | 1.4358 ± 0.0005 | 1.4337 ± 0.0005 | 1.4315 ± 0.0005

CC(O)CN (stereo not given) [1-amino-2-propanol] + CCCCO
refractive index
Settings | 288.15 K | 293.15 K | 298.15 K | 303.15 K | 308.15 K | 313.15 K | 318.15 K | 323.15 K | 328.15 K | 333.15 K
x1 = 0.1 | 1.4058 ± 0.0004 | 1.4038 ± 0.0004 | 1.4018 ± 0.0004 | 1.3998 ± 0.0004 | 1.3977 ± 0.0004 | 1.3956 ± 0.0004 | 1.3934 ± 0.0004 | 1.3913 ± 0.0004 | 1.3892 ± 0.0004 | 1.387 ± 0.0004
x1 = 0.2005 | 1.4104 ± 0.0004 | 1.4084 ± 0.0004 | 1.4064 ± 0.0004 | 1.4043 ± 0.0004 | 1.4022 ± 0.0004 | 1.4001 ± 0.0004 | 1.398 ± 0.0004 | 1.3958 ± 0.0004 | 1.3937 ± 0.0004 | 1.3915 ± 0.0004
x1 = 0.3 | 1.4151 ± 0.0004 | 1.413 ± 0.0004 | 1.411 ± 0.0004 | 1.4089 ± 0.0004 | 1.4068 ± 0.0004 | 1.4047 ± 0.0004 | 1.4026 ± 0.0004 | 1.4005 ± 0.0004 | 1.3983 ± 0.0004 | 1.3961 ± 0.0004
x1 = 0.3999 | 1.4198 ± 0.0004 | 1.4178 ± 0.0004 | 1.4157 ± 0.0004 | 1.4136 ± 0.0004 | 1.4115 ± 0.0004 | 1.4094 ± 0.0004 | 1.4073 ± 0.0004 | 1.4051 ± 0.0004 | 1.403 ± 0.0004 | 1.4008 ± 0.0004
x1 = 0.5 | 1.4246 ± 0.0004 | 1.4226 ± 0.0004 | 1.4205 ± 0.0004 | 1.4184 ± 0.0004 | 1.4163 ± 0.0004 | 1.4142 ± 0.0004 | 1.4121 ± 0.0004 | 1.4099 ± 0.0004 | 1.4078 ± 0.0004 | 1.4056 ± 0.0004
x1 = 0.6001 | 1.4295 ± 0.0004 | 1.4275 ± 0.0004 | 1.4254 ± 0.0004 | 1.4234 ± 0.0004 | 1.4213 ± 0.0004 | 1.4191 ± 0.0004 | 1.417 ± 0.0004 | 1.4149 ± 0.0004 | 1.4128 ± 0.0004 | 1.4106 ± 0.0004
x1 = 0.7 | 1.4345 ± 0.0005 | 1.4324 ± 0.0005 | 1.4304 ± 0.0005 | 1.4283 ± 0.0005 | 1.4262 ± 0.0005 | 1.4242 ± 0.0005 | 1.4221 ± 0.0005 | 1.42 ± 0.0005 | 1.4178 ± 0.0005 | 1.4156 ± 0.0005
x1 = 0.8 | 1.4395 ± 0.0005 | 1.4375 ± 0.0005 | 1.4354 ± 0.0005 | 1.4334 ± 0.0005 | 1.4313 ± 0.0005 | 1.4292 ± 0.0005 | 1.4272 ± 0.0005 | 1.425 ± 0.0005 | 1.4229 ± 0.0005 | 1.4208 ± 0.0005
x1 = 0.8997 | 1.4446 ± 0.0005 | 1.4426 ± 0.0005 | 1.4406 ± 0.0005 | 1.4385 ± 0.0005 | 1.4365 ± 0.0005 | 1.4344 ± 0.0005 | 1.4324 ± 0.0005 | 1.4303 ± 0.0005 | 1.4282 ± 0.0005 | 1.426 ± 0.0005
x1 = 1 | 1.45 ± 0.0005 | 1.448 ± 0.0005 | 1.446 ± 0.0005 | 1.444 ± 0.0005 | 1.4419 ± 0.0005 | 1.4399 ± 0.0005 | 1.4378 ± 0.0005 | 1.4358 ± 0.0005 | 1.4337 ± 0.0005 | 1.4315 ± 0.0005
